Results reported in US11617777B2, “Cytotoxic and anti-mitotic compounds, and methods of using the same” (ZYMEWORKS BC INC., priority 2013, dated 2023).
Where two headings read alike, the source gives them in different places.

Test system: Jurkat cells
Assay: Cytotoxicity of compounds, CellTiter-Glo
Assay type: cell-based, Human
Conditions: read-out: EC50
Text: Cell lines used: Human T-cell leukemia cell line Jurkat (ATCC: TIB-152); HCC1954 (ATCC: CRL. 2338); Human Pancreatic cells lines: AsPC-1 (ATCC: CRL-1682), BxPC-3 (ATCC: CRL.1687), HPAF-II (ATCC: CRL.1997), MiaPaCa2 (ATCC: CRL.1420), PANC-1 (ATCC: CRL.1469), Capan-1 (ATCC: HTB-79), Capan-2 (ATCC: HTB-80) and the Human gastric carcinoma cell line NCI-N87 (ATCC: CRL. 5822); AML-193 (ATCC: CRL.9589), CCRF-CEM (ATCC: CCL-119), DU145 (ATCC: HTB-81), PC-3 (ATCC: CRL.1435), A-431 (ATCC: CRL.1555), HT-29 (ATCC: HTB-38), A-172 (ATCC: CRL.1620), NCI-H358 (ATCC: CRL.5807), A549 (ATCC: CCL-185), Colo-205 (ATCC: CCL-222), MDA-MB-231 (ATCC: HTB-26), OVCAR-3 (ATCC: HTB-161), OV-90 (ATCC: CRL.11732), OE19 (Sigma: 96071721), RT 112/84 (Sigma: 85061106).
On the day prior to adding compounds, HCC1954 AsPC-1, BxPC-3, HPAF-II, MiaPaCa2, PANC-1, Capan-1, Capan-2 and NCI-N87 cells were added to opaque-walled 96-well tissue culture-treated microtiter plates using complete growth medium at a density of 2500 cells/100 microlitre (uL) of medium. These adherant cell lines cells were incubated for one night at 37° C./5% CO2 to allow the cells to attach to the microtiter plate surface. On the day that compounds were added, Jurkat cells are added to separate 96-well microtiter plates at 2500 cells/100 uL using the same growth medium as HCC1954. Compound were first serially diluted using dimethyl sulfoxide, and then the prepared dilutions are added to complete growth medium at five-times the final concentration—compounds were then titrated 1:3, eight steps. A control with no compound (growth medium alone) was included on each microtiter plate in sextuplicate. The prepared compounds titrations were added (twenty-five uL/well) in triplicate. The cells and compound titrations were incubated at 37° C./5% CO2 for three nights. After the incubation, cell viability is measured using CellTiter-Glo® reagent by adding thirty uL of prepared CellTiter-Glo® to each assay well. The assay is incubated for at least twenty minutes in the dark prior to measuring emitted luminescence using a microplate luminometer (500 ms integration time). The collected relative luminescence units (RLU) are converted to % cytotoxicity using the Growth medium alone control mentioned above (% Cytotoxicity=1−[Well RLU/average medium alone control RLU]).
GraphPad Prism was used for generation of EC50 values using three parameter non-linear regression curve fitting.

[1] = Homo sapiens, Jurkat, Table 6, Compound Cytotoxicity on Jurkat
[2] = Homo sapiens, Jurkat, Table 3, Cytotoxicity of Compounds on Jurkat Cells

| SMILES | EC50 [1] [nM] | EC50 [2] [nM] | further results |
| --- | --- | --- | --- |
| CN[C@H](C(=O)N[C@H](C(=O)N(C)[C@H](/C=C(\C)C(=O)NS(=O)(=O)Cc1cccc([N+](=O)[O-])c1)C(C)C)C(C)(C)C)C(C)(C)c1ccccc1 [Compound 70, (S,E)-2,5-dimethyl-N-(3-nitrobenzylsulfonyl)-4-((S)—N,3,3-trimethyl-2-((S)-3-methyl-2-(methylamino)-3-phenylbutanamido)butanamido)hex-2-enamide] | 0.856 | – | – |
| CN[C@H](C(=O)N[C@H](C(=O)N(C)[C@H](/C=C(\C)C(=O)NS(=O)(=O)c1ccc(Br)cc1)C(C)C)C(C)(C)C)C(C)(C)c1ccccc1 [Compound 29, (S,E)-N-(4-bromophenylsulfonyl)-2,5-dimethyl-4-((S)—N,3,3-trimethyl-2-((S)-3-methyl-2-(methylamino)-3-phenylbutanamido)butanamido)hex-2-enamide] | – | 0.121 | – |
| CN[C@H](C(=O)N[C@H](C(=O)N(C)[C@H](/C=C(\C)C(=O)NS(=O)(=O)CC1CCCC1)C(C)C)C(C)(C)C)C(C)(C)c1ccccc1 [Compound 35, (S,E)-N-(cyclopentylmethylsulfonyl)-2,5-dimethyl-4-((S)—N,3,3-trimethyl-2-((S)-3-methyl-2-(methylamino)-3-phenylbutanamido)butanamido)hex-2-enamide] | 0.832 | – | – |
| CN[C@H](C(=O)N[C@H](C(=O)N(C)[C@H](/C=C(\C)C(=O)NS(=O)(=O)c1ccc2ccccc2c1)C(C)C)C(C)(C)C)C(C)(C)c1ccccc1 [Compound 30, (S,E)-2,5-dimethyl-N-(naphthalen-2-ylsulfonyl)-4-((S)—N,3,3-trimethyl-2-((S)-3-methyl-2-(methylamino)-3-phenylbutanamido)butanamido)hex-2-enamide] | – | 0.109 | – |
| CN[C@H](C(=O)N[C@H](C(=O)N(C)[C@H](/C=C(\C)C(=O)NS(=O)(=O)c1cc(C(=O)OC)ccc1Cl)C(C)C)C(C)(C)C)C(C)(C)c1ccccc1 [Compound 74, methyl 4-chloro-3-(N—((S,E)-2,5-dimethyl-4-((S)—N,3,3-trimethyl-2-((S)-3-methyl-2-(methylamino)-3-phenylbutanamido)butanamido)hex-2-enoyl)sulfamoyl)benzoate] | – | 0.087 | – |
| CN[C@H](C(=O)N[C@H](C(=O)N(C)[C@H](/C=C(\C)C(=O)NS(=O)(=O)c1ccccc1[N+](=O)[O-])C(C)C)C(C)(C)C)C(C)(C)c1ccccc1 [Compound 19, (S,E)-2,5-dimethyl-N-(2-nitrophenylsulfonyl)-4-((S)—N,3,3-trimethyl-2-((S)-3-methyl-2-(methylamino)-3-phenylbutanamido)butanamido)hex-2-enamide] | – | 0.152 | – |
| CN[C@H](C(=O)N[C@H](C(=O)N(C)[C@H](/C=C(\C)C(=O)NS(=O)(=O)Cc1ccccc1[N+](=O)[O-])C(C)C)C(C)(C)C)C(C)(C)c1ccccc1 [Compound 72, (S,E)-2,5-dimethyl-N-(2-nitrobenzylsulfonyl)-4-((S)—N,3,3-trimethyl-2-((S)-3-methyl-2-(methylamino)-3-phenylbutanamido)butanamido)hex-2-enamide] | – | – | EC50 (Table 6, Compound Cytotoxicity on Jurkat): 0.531 nM |
| CN[C@H](C(=O)N[C@H](C(=O)N(C)[C@H](/C=C(\C)C(=O)NS(=O)(=O)c1cccc(NC(=O)C(F)(F)F)c1)C(C)C)C(C)(C)C)C(C)(C)c1ccccc1 [Compound 47, (S,E)-2,5-dimethyl-N-(3-(2,2,2-trifluoroacetamido)phenylsulfonyl)-4-((S)—N,3,3-trimethyl-2-((S)-3-methyl-2-(methylamino)-3-phenylbutanamido)butanamido)hex-2-enamide] | – | 0.261 | – |
| CN[C@H](C(=O)N[C@H](C(=O)N(C)[C@H](/C=C(\C)C(=O)NS(=O)(=O)c1ccc(Cl)cc1)C(C)C)C(C)(C)C)C(C)(C)c1ccccc1 [Compound 17, (S,E)-N-(4-chlorophenylsulfonyl)-2,5-dimethyl-4-((S)—N,3,3-trimethyl-2-((S)-3-methyl-2-(methylamino)-3-phenylbutanamido)butanamido)hex-2-enamide] | – | 0.325 | – |
| CN[C@H](C(=O)N[C@H](C(=O)N(C)[C@H](/C=C(\C)C(=O)NS(=O)(=O)c1ccc(N)c(C)c1)C(C)C)C(C)(C)C)C(C)(C)c1ccccc1 [Compound 111, (S,E)-N-(4-amino-3-methylphenylsulfonyl)-2,5-dimethyl-4-((S)—N,3,3-trimethyl-2-((S)-3-methyl-2-(methylamino)-3-phenylbutanamido)butanamido)hex-2-enamide] | ~0.118 | – | EC50 (Homo sapiens, Jurkat, Table 7, Cytotoxicity on Jurkat): 0.12 nM |
| CN[C@H](C(=O)N[C@H](C(=O)N(C)[C@H](/C=C(\C)C(=O)NS(=O)(=O)c1ccc(OC(F)(F)F)cc1)C(C)C)C(C)(C)C)C(C)(C)c1ccccc1 [Compound 13, (S,E)-2,5-dimethyl-N-(4-(trifluoromethoxy)phenylsulfonyl)-4-((S)—N,3,3-trimethyl-2-((S)-3-methyl-2-(methylamino)-3-phenylbutanamido)butanamido)hex-2-enamide] | 1.51 | 0.038 | – |
| CN[C@H](C(=O)N[C@H](C(=O)N(C)[C@H](/C=C(\C)C(=O)NS(=O)(=O)Cc1ccccc1)C(C)C)C(C)(C)C)C(C)(C)c1cccc(OC)c1 [Compound 93, (S,E)-N-(benzylsulfonyl)-4-((S)-2-((S)-3-(3-methoxyphenyl)-3-methyl-2-(methylamino)butanamido)-N,3,3-trimethylbutanamido)-2,5-dimethylhex-2-enamide] | 0.196 | – | – |
| CN[C@H](C(=O)N[C@H](C(=O)N(C)[C@H](/C=C(\C)C(=O)NS(=O)(=O)c1cccc(N)c1)C(C)C)C(C)(C)C)C(C)(C)c1ccccc1 [Compound 48, (S,E)-N-(3-aminophenylsulfonyl)-2,5-dimethyl-4-((S)—N,3,3-trimethyl-2-((S)-3-methyl-2-(methylamino)-3-phenylbutanamido)butanamido)hex-2-enamide] | – | 0.208 | – |
| CN[C@H](C(=O)N[C@H](C(=O)N(C)[C@H](/C=C(\C)C(=O)NS(=O)(=O)C1CCCCC1)C(C)C)C(C)(C)C)C(C)(C)c1ccccc1 [Compound 44, (S,E)-N-(cyclohexylsulfonyl)-2,5-dimethyl-4-((S)—N,3,3-trimethyl-2-((S)-3-methyl-2-(methylamino)-3-phenylbutanamido)butanamido)hex-2-enamide] | 1.48 | 0.114 | – |
| CN[C@H](C(=O)N[C@H](C(=O)N(C)[C@H](/C=C(\C)C(=O)NS(=O)(=O)Cc1ccccc1)C(C)C)C(C)(C)C)C(C)(C)c1ccc(OC)cc1 [Compound 91, (S,E)-N-(benzylsulfonyl)-4-((S)-2-((S)-3-(4-methoxyphenyl)-3-methyl-2-(methylamino)butanamido)-N,3,3-trimethylbutanamido)-2,5-dimethylhex-2-enamide] | 0.109 | – | – |
| CN[C@H](C(=O)N[C@H](C(=O)N(C)[C@H](/C=C(\C)C(=O)NS(=O)(=O)Cc1ccc(C(C)(C)C)cc1)C(C)C)C(C)(C)C)C(C)(C)c1ccccc1 [Compound 71, (S,E)-N-(4-tert-butylbenzylsulfonyl)-2,5-dimethyl-4-((S)—N,3,3-trimethyl-2-((S)-3-methyl-2-(methylamino)-3-phenylbutanamido)butanamido)hex-2-enamide] | 1.02 | – | – |
| CN[C@H](C(=O)N[C@H](C(=O)N(C)[C@H](/C=C(\C)C(=O)NS(=O)(=O)Cc1ccccc1)C(C)C)C(C)(C)C)C(C)(C)c1ccc(N=[N+]=[N-])cc1 [Compound 42, (S,E)-4-((S)-2-((S)-3-(4-azidophenyl)-3-methyl-2-(methylamino)butanamido)-N,3,3-trimethylbutanamido)-N-(benzylsulfonyl)-2,5-dimethylhex-2-enamide] | – | 0.165 | – |
| CN[C@H](C(=O)N[C@H](C(=O)N(C)[C@H](/C=C(\C)C(=O)NS(=O)(=O)Cc1ccc(Cl)c(Cl)c1)C(C)C)C(C)(C)C)C(C)(C)c1ccccc1 [Compound 104, (S,E)-N-(3,4-dichlorobenzylsulfonyl)-2,5-dimethyl-4-((S)—N,3,3-trimethyl-2-((S)-3-methyl-2-(methylamino)-3-phenylbutanamido)butanamido)hex-2-enamide] | 0.272 | – | – |
